In brackets after ≈: the same amount, converted by molar mass. Where a SMILES comes first, the peptide text is derived from it. Bridges are numbered along the chain shown (N, C = ends). Roman numbers before positions name the chains, in order. [ ]: non-standard residue; d: D form. Leu(3R-OH) = CC(C)[C@@H](O)[C@H](N)C(=O)O; aThr = C[C@H](O)[C@H](N)C(=O)O; Tle = CC(C)(C)[C@H](N)C(=O)O; NMeV = CN[C@H](C(=O)O)C(C)C; Hiv = CC(C)[C@H](O)C(=O)O; dDab = NCC[C@@H](N)C(=O)O; hSer = N[C@@H](CCO)C(=O)O; Dab = NCC[C@H](N)C(=O)O; Abu = CC[C@H](N)C(=O)O; Dap = NC[C@H](N)C(=O)O
Legend:
Assay type in all cases: cell-based
[1] = system: Acinetobacter baumannii 872842; settings: 872842
How it was run: (§1)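 CLSI broth microdilution: inoculum ~10^6 CFU/mL in cation-adjusted Mueller-Hinton II broth, with peptide in serial two-fold dilutions plus Polysorbate 80 (0.002% final). MIC (μg/mL) is the lowest concentration without visible growth after 18-20 hours at 35° C.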

[2] = system: Acinetobacter baumannii DSM 30008; settings: DSM 30008
How it was run: as §1

[3] = system: Enterobacter cloacae 848840; settings: 848840
How it was run: as §1

Escherichia coli 926415 = settings: 926415
How it was run: as §1

[4] = system: Escherichia coli ATCC 25922; settings: ATCC 25922
How it was run: as §1

[5] = system: Klebsiella pneumoniae 968733; settings: 968733
How it was run: as §1

[6] = system: Klebsiella pneumoniae SSI #3010; settings: SSI #3010
How it was run: as §1

[7] = system: Pseudomonas aeruginosa ATCC 27853; settings: ATCC 27853
How it was run: as §1

[8] = system: human red blood cells (hRBC); assay: Hemolysis; settings: red cells of human, 1 h, 200
How it was run: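 Washed fresh hRBC (20% v/v) were incubated with peptides at 200 μg/mL for 1 h at 37° C with shaking at 300 rpm. Supernatant OD540 was read after centrifugation and dilution, blank-corrected, and expressed as percent of the 2% Triton X-100 (100% lysis) control; PBS with 10% water gave 0%.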

MIC [1]	MIC [2]	MIC [3]	MIC (Escherichia coli 926415)	MIC [4]	MIC [5]	MIC [6]	MIC [7]	Acinetobacter baumannii DSM 30008 MIC [2]	Escherichia coli ATCC 25922 MIC [4]	Klebsiella pneumoniae SSI #3010 MIC [6]	Pseudomonas aeruginosa ATCC 27853 MIC [7]	SMILES	Hemolysis at 200 μg/mL [8]
0.5 µg/mL (≈ 0.207 µM)	0.125 µg/mL (≈ 0.0518 µM)	0.25 µg/mL (≈ 0.104 µM)	0.25 µg/mL (≈ 0.104 µM)	0.125 µg/mL (≈ 0.0518 µM)	0.5 µg/mL (≈ 0.207 µM)	0.125 µg/mL (≈ 0.0518 µM)	0.25 µg/mL (≈ 0.104 µM)					CC(=O)N[C@H](C(=O)N[C@H]1CSSC[C@@H](C(=O)N[C@H](C(N)=O)[C@@H](C)O)NC(=O)[C@H](C(C)(C)C)NC(=O)[C@H](CO)NC(=O)[C@H](Cc2c[nH]c3ccccc23)NC(=O)[C@H](CO)NC(=O)[C@@H](CCN)NC(=O)[C@H](CCC(=O)N[C@@H](CCN)C(=O)N[C@H](C(=O)N[C@@H](CN)C(=O)N[C@H]2CCNC(=O)[C@H]([C@@H](C)O)NC(=O)[C@H](CCN)NC(=O)[C@H](CCN)NC(=O)[C@H]([C@H](C)O)NC(=O)[C@@H](CC(C)C)NC(=O)[C@H](CCN)NC2=O)[C@@H](C)O)NC(=O)[C@H](CCN)NC(=O)[C@H](Cc2ccc(O)cc2)NC1=O)C(C)C [Ex. 140] (I: Ac-VCY[Dab]E[dDab]SWS[Tle]CT-NH2 / II: [Dab]T[Dap][Dab][Dab][dL][aThr][Dab][Dab]T; disulfide I:2-I:11; amide I:5-II:N; lactam II:4-II:C)	<1%
0.03125 µg/mL (≈ 0.0127 µM)		0.03125 µg/mL (≈ 0.0127 µM)	0.0625 µg/mL (≈ 0.0254 µM)		0.0625 µg/mL (≈ 0.0254 µM)			0.007813 µg/mL	0.01562 µg/mL	0.03125 µg/mL	0.0625 µg/mL	CC[C@@H]1NC(=O)[C@@H](CC(C)C)NC(=O)[C@H](CCN)NC(=O)[C@@H](NC(=O)[C@H](CN)NC(=O)[C@@H](NC(=O)[C@H](CCN)NC(=O)CC[C@@H]2NC(=O)[C@H](CCN)NC(=O)[C@H](Cc3ccc(O)cc3)NC(=O)[C@@H](NC(=O)[C@@H](NC(C)=O)C(C)C)CSSC[C@@H](C(=O)N[C@@H](C)C(=O)N[C@H](CO)C(N)=O)NC(=O)[C@H]([C@@H](C)CC)NC(=O)[C@H](CO)NC(=O)[C@H](Cc3c[nH]c4ccccc34)NC(=O)[C@H](CO)NC(=O)[C@@H](CCN)NC2=O)[C@@H](C)O)CCNC(=O)[C@H]([C@@H](C)O)NC(=O)[C@H](CCN)NC(=O)[C@H](CCN)NC1=O [Ex. 369] (I: Ac-VCY[Dab]E[dDab]SWSICA[dS]-NH2 / II: [Dab]T[Dap][Dab][Dab][dL][Abu][Dab][Dab]T; disulfide I:2-I:11; amide I:5-II:N; lactam II:4-II:C)	<1%
1 µg/mL (≈ 0.407 µM)	0.125 µg/mL (≈ 0.0509 µM)	0.5 µg/mL (≈ 0.204 µM)	2 µg/mL (≈ 0.815 µM)	0.125 µg/mL (≈ 0.0509 µM)	8 µg/mL (≈ 3.26 µM)	0.25 µg/mL (≈ 0.102 µM)	0.25 µg/mL (≈ 0.102 µM)					CC(=O)N[C@H](C(=O)N[C@H]1CSSC[C@@H](C(=O)N[C@@H](CO)C(N)=O)NC(=O)[C@H](C(C)C)NC(=O)[C@H](CC(=O)O)NC(=O)[C@H](Cc2c[nH]c3ccccc23)NC(=O)[C@H](CO)NC(=O)[C@@H](CCN)NC(=O)[C@H](CCC(=O)N[C@@H](CCN)C(=O)N[C@H](C(=O)N[C@@H](CN)C(=O)N[C@H]2CCNC(=O)[C@H]([C@@H](C)O)NC(=O)[C@H](CCN)NC(=O)[C@H](CCN)NC(=O)[C@H](CC(C)C)NC(=O)[C@@H](CC(C)C)NC(=O)[C@H](CCN)NC2=O)[C@@H](C)O)NC(=O)[C@H](CCCCN)NC(=O)[C@H](Cc2ccc(O)cc2)NC1=O)C(C)C [Ex. 152] (I: Ac-VCYKE[dDab]SWDVCS-NH2 / II: [Dab]T[Dap][Dab][Dab][dL]L[Dab][Dab]T; disulfide I:2-I:11; amide I:5-II:N; lactam II:4-II:C)	<1%
0.0625 µg/mL (≈ 0.0245 µM)	0.03125 µg/mL (≈ 0.0122 µM)	0.125 µg/mL (≈ 0.049 µM)	0.0625 µg/mL (≈ 0.0245 µM)	0.0625 µg/mL (≈ 0.0245 µM)	0.5 µg/mL (≈ 0.196 µM)	0.125 µg/mL (≈ 0.049 µM)	0.25 µg/mL (≈ 0.0979 µM)					CC(=O)N[C@@H](CCN)C(=O)N[C@H](C(=O)N[C@H](C(=O)N[C@@H](Cc1ccc(O)cc1)C(=O)N[C@H]1CSSC[C@@H](C(=O)N[C@H](C(=O)N[C@@H](C)C(=O)N[C@H](C(N)=O)C(C)C)C(C)(C)C)NC(=O)[C@H](Cc2c[nH]c3ccccc23)NC(=O)[C@H](CCN)NC(=O)[C@@H](CCN)NC(=O)[C@H](CCC(=O)N[C@@H](CCN)C(=O)N[C@H](C(=O)N[C@@H](CN)C(=O)N[C@H]2CCNC(=O)[C@H]([C@@H](C)O)NC(=O)[C@H](CCN)NC(=O)[C@H](CCN)NC(=O)[C@H](CC(C)C)NC(=O)[C@@H](CC(C)C)NC(=O)[C@H](CCN)NC2=O)[C@@H](C)O)NC1=O)[C@@H](C)O)[C@H](O)C(C)C [Ex. 240] (I: Ac-[Dab][Leu(3R-OH)]TYCE[dDab][Dab]WC[Tle]AV-NH2 / II: [Dab]T[Dap][Dab][Dab][dL]L[Dab][Dab]T; disulfide I:5-I:10; amide I:6-II:N; lactam II:4-II:C)	1%
0.0625 µg/mL (≈ 0.0252 µM)	0.03125 µg/mL (≈ 0.0126 µM)	0.125 µg/mL (≈ 0.0503 µM)	0.125 µg/mL (≈ 0.0503 µM)	0.03125 µg/mL (≈ 0.0126 µM)	0.125 µg/mL (≈ 0.0503 µM)	0.03125 µg/mL (≈ 0.0126 µM)	0.125 µg/mL (≈ 0.0503 µM)					CC(=O)N[C@H](C(=O)N[C@H]1CSSC[C@@H](C(=O)N[C@H](C(N)=O)[C@@H](C)O)NC(=O)[C@H](C(C)(C)C)NC(=O)[C@H](CCC(=O)O)NC(=O)[C@H](Cc2c[nH]c3ccccc23)NC(=O)[C@H](CCN)NC(=O)[C@@H](CCN)NC(=O)[C@H](CCC(=O)N[C@@H](CCN)C(=O)N[C@H](C(=O)N[C@@H](CN)C(=O)N[C@H]2CCNC(=O)[C@H]([C@@H](C)O)NC(=O)[C@H](CCN)NC(=O)[C@H](CCN)NC(=O)[C@H]([C@H](O)C(C)C)NC(=O)[C@@H](CC(C)C)NC(=O)[C@H](CCN)NC2=O)[C@@H](C)O)NC(=O)[C@H](CO)NC(=O)[C@H](Cc2ccc(O)cc2)NC1=O)C(C)C [Ex. 134] (I: Ac-VCYSE[dDab][Dab]WE[Tle]CT-NH2 / II: [Dab]T[Dap][Dab][Dab][dL][Leu(3R-OH)][Dab][Dab]T; disulfide I:2-I:11; amide I:5-II:N; lactam II:4-II:C)	3%
0.25 µg/mL (≈ 0.104 µM)	0.125 µg/mL (≈ 0.0521 µM)	0.25 µg/mL (≈ 0.104 µM)	0.25 µg/mL (≈ 0.104 µM)	0.125 µg/mL (≈ 0.0521 µM)	1 µg/mL (≈ 0.417 µM)	0.125 µg/mL (≈ 0.0521 µM)	0.125 µg/mL (≈ 0.0521 µM)					CN[C@H](C(=O)N[C@H](C(=O)N[C@@H](Cc1ccc(O)cc1)C(=O)N[C@H]1CSSC[C@@H](C(=O)N[C@H](C(=O)N[C@@H](C)C(=O)N[C@@H](CO)C(N)=O)C(C)(C)C)NC(=O)[C@H](Cc2c[nH]c3ccccc23)NC(=O)[C@H](CCO)NC(=O)[C@@H](CCN)NC(=O)[C@H](CCC(=O)N[C@@H](CCN)C(=O)N[C@H](C(=O)N[C@@H](CCN)C(=O)N[C@H]2CCNC(=O)[C@H]([C@@H](C)O)NC(=O)[C@H](CCN)NC(=O)[C@H](CCN)NC(=O)[C@H](CC(C)C)NC(=O)[C@@H](CC(C)C)NC(=O)[C@H](CCN)NC2=O)[C@@H](C)O)NC1=O)[C@@H](C)O)C(C)C [Ex. 185] (I: H-[NMeV]TYCE[dDab][hSer]WC[Tle]AS-NH2 / II: [Dab]T[Dab][Dab][Dab][dL]L[Dab][Dab]T; disulfide I:4-I:9; amide I:5-II:N; lactam II:4-II:C)	<1%
0.125 µg/mL (≈ 0.0503 µM)		0.25 µg/mL (≈ 0.101 µM)	0.125 µg/mL (≈ 0.0503 µM)		0.25 µg/mL (≈ 0.101 µM)			0.03125 µg/mL	0.0625 µg/mL	0.0625 µg/mL	0.0625 µg/mL	CC(C)C[C@@H]1NC(=O)[C@@H](CC(C)C)NC(=O)[C@H](CCN)NC(=O)[C@@H](NC(=O)[C@H](CN)NC(=O)[C@@H](NC(=O)[C@H](CCN)NC(=O)CC[C@@H]2NC(=O)[C@H](CO)NC(=O)[C@H](Cc3ccc(O)cc3)NC(=O)[C@@H](NC(=O)[C@@H](O)C(C)C)CSSC[C@@H](C(=O)N[C@@H](CO)C(=O)N[C@@H](CC(=O)O)C(N)=O)NC(=O)[C@H](C(C)(C)C)NC(=O)[C@H](CO)NC(=O)[C@H](Cc3c[nH]c4ccccc34)NC(=O)[C@H](CCN)NC(=O)[C@@H](CCN)NC2=O)[C@@H](C)O)CCNC(=O)[C@H]([C@@H](C)O)NC(=O)[C@H](CCN)NC(=O)[C@H](CCN)NC1=O [Ex. 372] (I: H-[Hiv]CYSE[dDab][Dab]WS[Tle]CSD-NH2 / II: [Dab]T[Dap][Dab][Dab][dL]L[Dab][Dab]T; disulfide I:2-I:11; amide I:5-II:N; lactam II:4-II:C)	<1%

Source: patent publication US11629171B2, “Beta-hairpin peptidomimetics” (POLYPHOR AG, priority 2017, dated 2023)
